Tests used:
[1] = molecular target: T1, F508del-CFTR-G550E.R553M.R555K.R1070W (3TS + RW) (Homo sapiens, UniProt P13569, DEL508-508/G550E/R1070W/R553M/R555K); assay: CFTR immunoblotting in HEK-TREx cells expressing F508del-CFTR 3TS + RW; type: cell-based; conditions: 48 hours
T1 construct: expressed in transfected cells; host or cells: T-REx HEK293
Text: (§1) The human CFTR expressing HEK cell pools with the mutations described below were generated by integrase-mediated homologous recombination of the CFTR sequence into the T-REx HEK293 background (Thermo Fisher Scientific). This expression system allows the tetracycline-inducible expression of genes of interest from one defined insertion site. Parental T-REx-HEK293 cells were cultivated in growth medium: Dulbecco’s modified Eagle’s medium + GlutaMAX-I (#31966, Life Technologies), 10% dialyzed FBS (Gibco, #26400), penicillin (100 U/ml), streptomycin (100 μg/ml), hygromycin B (0.1 mg/ml; Life Technologies), blasticidin (5 μg/ml; Invitrogen, #R210-01), and 0.1 mM nonessential amino acid solution (Invitrogen, #11140-035). Recombinant T-REx-HEK-CFTR cells were generated by lipofectamine transfection (Life Technologies) of plasmids containing mutated versions of CFTR (RefSeq NM_000492) and then cultivated in selection medium [growth medium containing Geneticin (1 mg/ml) (Invitrogen, #10131-027) instead of hygromycin]. The plasmid constructs were synthetized by GENEART (Thermo Fisher Scientific) and designed with the WT CFTR intron 5 to 6 (880 nucleotides) to prevent leaky expression issues during the cloning process in bacteria. […]

F508del.L15W-CFTR = assay: Site-directed mutagenesis immunoblotting, HEK-TREx, F508del.L15W-CFTR; type: cell-based, human; conditions: 40 h, 2 μM
Text: as §1

F508del.K14A-CFTR = assay: Site-directed mutagenesis immunoblotting, HEK-TREx, F508del.K14A-CFTR; type: cell-based, human; conditions: 40 h, 2 μM
Text: as §1

L206W CFTR = molecular target: T2, L206W CFTR (Homo sapiens, UniProt P13569, L206W); assay: CFTR correction (immunoblotting), HEK-TREx, L206W; type: cell-based; conditions: 48 hours, IDOR-3 2 μM, IDOR-4 0.4 μM, TEZ 2 μM + ELX 0.4 μM
T2 construct: expressed in transfected cells; host or cells: T-REx HEK293
Text: as §1

S945L CFTR = molecular target: T3, S945L CFTR (Homo sapiens, UniProt P13569, S945L); assay: CFTR correction (immunoblotting), HEK-TREx, S945L; type: cell-based; conditions: 48 hours, IDOR-3 2 μM, IDOR-4 0.4 μM, TEZ 2 μM + ELX 0.4 μM
T3 construct: expressed in transfected cells; host or cells: T-REx HEK293
Text: as §1

G85E CFTR = molecular target: T4, G85E CFTR (Homo sapiens, UniProt P13569, G85E); assay: CFTR correction (immunoblotting), HEK-TREx, G85E; type: cell-based; conditions: 48 hours, IDOR-3 2 μM, IDOR-4 0.4 μM, TEZ 2 μM + ELX 0.4 μM
T4 construct: expressed in transfected cells; host or cells: T-REx HEK293
Text: as §1

V520F CFTR = molecular target: T5, V520F CFTR (Homo sapiens, UniProt P13569, V520F); assay: CFTR correction (immunoblotting), HEK-TREx, V520F; type: cell-based; conditions: 48 hours, IDOR-3 2 μM, IDOR-4 0.4 μM, TEZ 2 μM + ELX 0.4 μM
T5 construct: expressed in transfected cells; host or cells: T-REx HEK293
Text: as §1

T3 sequence (P13569 whole entry S945L): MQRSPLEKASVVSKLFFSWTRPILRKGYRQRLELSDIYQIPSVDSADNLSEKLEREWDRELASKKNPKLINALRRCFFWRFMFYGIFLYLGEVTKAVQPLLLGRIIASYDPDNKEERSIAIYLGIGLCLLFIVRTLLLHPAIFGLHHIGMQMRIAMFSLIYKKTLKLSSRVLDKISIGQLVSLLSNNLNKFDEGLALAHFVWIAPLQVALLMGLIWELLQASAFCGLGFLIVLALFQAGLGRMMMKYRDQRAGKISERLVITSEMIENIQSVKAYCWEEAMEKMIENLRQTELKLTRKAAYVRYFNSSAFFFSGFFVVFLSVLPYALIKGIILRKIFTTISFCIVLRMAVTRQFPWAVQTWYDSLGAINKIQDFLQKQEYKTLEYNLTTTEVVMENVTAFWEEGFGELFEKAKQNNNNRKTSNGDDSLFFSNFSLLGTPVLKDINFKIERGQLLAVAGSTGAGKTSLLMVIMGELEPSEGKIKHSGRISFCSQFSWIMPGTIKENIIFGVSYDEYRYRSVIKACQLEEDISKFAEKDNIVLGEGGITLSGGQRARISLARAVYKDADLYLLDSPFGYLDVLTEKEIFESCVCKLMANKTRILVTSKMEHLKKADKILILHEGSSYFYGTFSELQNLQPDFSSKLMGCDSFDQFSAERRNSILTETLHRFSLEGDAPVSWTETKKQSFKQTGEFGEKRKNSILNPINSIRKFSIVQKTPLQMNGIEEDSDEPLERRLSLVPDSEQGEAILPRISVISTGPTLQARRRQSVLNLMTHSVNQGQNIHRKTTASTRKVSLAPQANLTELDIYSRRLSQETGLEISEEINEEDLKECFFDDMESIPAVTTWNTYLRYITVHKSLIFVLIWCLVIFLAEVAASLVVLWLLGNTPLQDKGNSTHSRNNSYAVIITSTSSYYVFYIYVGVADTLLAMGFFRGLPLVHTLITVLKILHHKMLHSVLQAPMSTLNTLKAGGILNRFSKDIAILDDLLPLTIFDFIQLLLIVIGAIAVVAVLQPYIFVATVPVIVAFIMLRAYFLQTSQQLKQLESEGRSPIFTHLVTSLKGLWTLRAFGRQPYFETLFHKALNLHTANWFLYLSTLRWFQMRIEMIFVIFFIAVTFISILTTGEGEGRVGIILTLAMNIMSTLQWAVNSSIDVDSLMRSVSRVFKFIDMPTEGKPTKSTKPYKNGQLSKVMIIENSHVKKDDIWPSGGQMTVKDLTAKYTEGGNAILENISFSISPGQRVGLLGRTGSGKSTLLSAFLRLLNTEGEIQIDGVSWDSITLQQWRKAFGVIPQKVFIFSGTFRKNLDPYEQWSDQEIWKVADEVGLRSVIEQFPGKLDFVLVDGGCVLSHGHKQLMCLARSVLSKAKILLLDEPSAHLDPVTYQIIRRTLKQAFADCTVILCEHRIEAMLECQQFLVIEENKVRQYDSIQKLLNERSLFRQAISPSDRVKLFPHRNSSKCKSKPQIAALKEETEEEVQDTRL
T1 sequence (P13569 with tags, fused parts or gaps DEL508-508/G550E/R553M/R555K/R1070W): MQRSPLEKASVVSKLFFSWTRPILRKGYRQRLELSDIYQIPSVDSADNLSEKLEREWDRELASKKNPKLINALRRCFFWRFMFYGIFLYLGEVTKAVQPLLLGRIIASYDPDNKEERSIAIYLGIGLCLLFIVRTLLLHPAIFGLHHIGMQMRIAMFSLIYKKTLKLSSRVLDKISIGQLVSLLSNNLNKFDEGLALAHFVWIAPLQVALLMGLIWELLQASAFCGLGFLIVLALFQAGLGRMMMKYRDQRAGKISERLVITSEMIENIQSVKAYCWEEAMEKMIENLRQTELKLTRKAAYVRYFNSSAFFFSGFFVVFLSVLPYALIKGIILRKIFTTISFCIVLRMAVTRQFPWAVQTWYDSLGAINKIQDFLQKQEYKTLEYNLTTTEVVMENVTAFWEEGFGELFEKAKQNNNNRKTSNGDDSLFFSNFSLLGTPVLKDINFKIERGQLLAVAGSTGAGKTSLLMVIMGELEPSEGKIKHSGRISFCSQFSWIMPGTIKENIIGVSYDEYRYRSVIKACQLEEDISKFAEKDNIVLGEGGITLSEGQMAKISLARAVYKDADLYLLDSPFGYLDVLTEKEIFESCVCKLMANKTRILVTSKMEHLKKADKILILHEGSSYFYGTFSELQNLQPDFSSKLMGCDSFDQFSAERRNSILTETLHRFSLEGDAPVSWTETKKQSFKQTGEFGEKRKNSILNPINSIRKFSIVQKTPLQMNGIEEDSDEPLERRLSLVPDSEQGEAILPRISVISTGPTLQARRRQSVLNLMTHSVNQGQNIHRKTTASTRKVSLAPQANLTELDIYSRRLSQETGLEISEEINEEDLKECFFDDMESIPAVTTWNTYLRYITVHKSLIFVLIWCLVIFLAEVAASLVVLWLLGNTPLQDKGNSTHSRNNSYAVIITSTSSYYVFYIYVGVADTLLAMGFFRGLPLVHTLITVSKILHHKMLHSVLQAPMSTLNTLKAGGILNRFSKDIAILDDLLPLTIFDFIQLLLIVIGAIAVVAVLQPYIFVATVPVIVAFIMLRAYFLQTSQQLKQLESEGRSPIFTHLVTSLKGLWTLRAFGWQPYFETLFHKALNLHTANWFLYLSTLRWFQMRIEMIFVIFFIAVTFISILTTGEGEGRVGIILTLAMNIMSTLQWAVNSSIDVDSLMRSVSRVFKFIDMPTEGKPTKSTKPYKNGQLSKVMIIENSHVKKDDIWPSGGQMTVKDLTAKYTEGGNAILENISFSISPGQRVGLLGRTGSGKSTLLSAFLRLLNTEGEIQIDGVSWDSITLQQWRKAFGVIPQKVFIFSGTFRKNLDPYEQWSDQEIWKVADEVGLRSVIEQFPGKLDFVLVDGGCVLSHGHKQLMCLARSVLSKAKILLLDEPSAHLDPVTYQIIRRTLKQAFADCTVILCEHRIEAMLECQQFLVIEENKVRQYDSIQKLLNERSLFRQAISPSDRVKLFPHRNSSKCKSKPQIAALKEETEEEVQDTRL
T4 sequence (P13569 whole entry G85E): as the sequence (P13569 whole entry S945L) above, with G85E, L945S counted along it
T2 sequence (P13569 whole entry L206W): as the sequence (P13569 whole entry S945L) above, with L206W, L945S counted along it
T5 sequence (P13569 whole entry V520F): as the sequence (P13569 whole entry S945L) above, with V520F, L945S counted along it

Q: What does the source list for `COc1cc(CCNC(=O)C2CC(=O)N(C)C(CC(C)C)C(=O)N3CCCCC3C(=O)NC(Cc3ccccc3)COc3ccc4ncc(F)cc4c3C(=O)N2)on1` (stereo not shown) [IDOR-3]?
A: effect of introduction of the RW mutation on C-band expression [1]: no additional effect; correction by macrocycles versus [LUM + BAM] (F508del.L15W-CFTR): little difference; weaker correction by macrocycles as compared to [LUM + BAM] (F508del.K14A-CFTR): two- to fourfold; correction of L206W (L206W CFTR): highly effective; correction of S945L (S945L CFTR): highly effective; correction of G85E (G85E CFTR): highly effective; correction of V520F (V520F CFTR): highly effective
